Source: publication PMC10398414, “Isolation and characterization of β-transducin repeat-containing protein ligands screened using a high-throughput screening system” (Oncology Research, 2023)
Square brackets hold non-standard residues; d marks the D form. Ends that are not written are not given here. Peptide text beside a SMILES is read from it. * marks the point of attachment. pS = N[C@@H](COP(=O)(O)O)C(=O)O; Cbz = O=C(OCc1ccccc1)*

How the values were obtained:
mAG-β-TrCP1 = target: T1, mAG-β-TrCP1 (Homo sapiens, UniProt Q9Y297); assay: High-throughput screening system for β-TrCP ligands (mAG-β-TrCP1 binding to plate-fixed C-IκB-PP15); conditions: serially diluted free phosphopeptide in cell lysate
T1 construct: made in house; host or cells: Express SF+ insect cells (baculovirus, pFASTBacI); crude lysate used
T1 sequence (Q9Y297 1-605): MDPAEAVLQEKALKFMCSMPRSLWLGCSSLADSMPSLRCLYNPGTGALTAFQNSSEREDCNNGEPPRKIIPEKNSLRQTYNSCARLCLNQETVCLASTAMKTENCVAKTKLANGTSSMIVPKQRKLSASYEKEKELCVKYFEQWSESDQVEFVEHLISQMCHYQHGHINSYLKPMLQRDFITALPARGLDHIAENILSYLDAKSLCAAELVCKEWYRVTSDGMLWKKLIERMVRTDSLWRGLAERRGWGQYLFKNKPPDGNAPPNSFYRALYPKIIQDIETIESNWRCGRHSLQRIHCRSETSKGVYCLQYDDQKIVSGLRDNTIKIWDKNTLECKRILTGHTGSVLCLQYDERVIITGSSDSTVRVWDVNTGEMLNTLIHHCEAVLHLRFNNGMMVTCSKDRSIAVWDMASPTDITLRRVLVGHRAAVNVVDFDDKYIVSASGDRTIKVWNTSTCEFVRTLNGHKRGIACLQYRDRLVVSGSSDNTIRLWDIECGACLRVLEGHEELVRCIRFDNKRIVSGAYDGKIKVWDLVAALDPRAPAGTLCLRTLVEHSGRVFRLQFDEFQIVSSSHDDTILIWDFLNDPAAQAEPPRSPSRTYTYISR
From the text: NotI digested mAG-β-TrCP1 (mAG, N-terminally fused fluorescent monomeric Azami Green) fragment was inserted to NotI pFASTBacI (Gibco) site for obtaining recombinant plasmid containing mAG-β-TrCP1. The recombinant plasmids were then transformed into DH10Bac cells and the obtained recombinant bacmids were transfected into Express SF+ Cells. Phosphopeptides C-IkB pp15 with target sequences (seq: CDDRHDpSGLDpSMKDEE) for β-TrCP-dependent binding or its negative control C-IkB s15 (seq: CDDRHDSGLDSMKDEE) were used in the establishment of the high-throughput system. These phosphopeptides, and their non-phosphorylated derivatives, were chemically synthesized at RIKEN CBS, Research Resources Center, Japan. C-IkB pp15 or C-IkB s15 (100 μL/well of 10 μM solution) were covalently attached to maleimide-activated 96-well plates (Themo Fisher Scientific, Waltham, MA, USA) overnight. […] After washing, bound mAG-β-TrCP1 was quantitated using spectrofluorometry (excitation, 470 nm; emission, 525 nm).
C-IκB-PP15 is a phosphopeptide whose sequence is derived from IκB that is known to bind to β-TrCP. […] After enough binding and washing, the bound mAG-β-TrCP1 was quantitated using spectrofluorometry. […] When the small molecules compete with the phosphopeptides for mAG-β-TrCP1 binding, there was less plate fluorescence (Fig. 1A).

HeLa cells = assay: Cytotoxicity / cell death; assay type: cell-based; conditions: data not shown
[1] = test system: NF-κB transcription activity in HeLa cells; assay: NF-κB luciferase reporter assay (pGL-4.32), TNF-α induced; assay type: cell-based; conditions: for NF-κB transcription, % of that of the control group (DMSO, TNF-α): 20 μM; for TNF-α induced NF-κB activation of transcription: 24 h compound then TNF-α 4 h
Description: For NF-κB transcription activity, PGL-4.32 contains five copies of the NF-κB response element, which is responsible for the transcription of the luciferase reporter gene, with pRL-SV40 as the internal control. NF-κB transcription activity was determined by firefly luciferase expression and normalized by renilla luciferase level. pGL-4.32 reporter plasmids (Promega) and pRL-sv40 renilla luciferase reporter (Promega) were co-transfected into HeLa cells using Lipofectamine 3000 reagent kit. Subsequently, 24 h after transfection, cells were cultured with the compounds of different dilutions for another 24 h. Furthermore, TNF-α was added, and the plates were cultured for another 4 h. The cells were lysed, and the luminescence was measured using the Luciferase Assay System. A minimum of three samples were taken for each sample.

SCF^β-TrCP1 = SCF^β-TrCP1 (Homo sapiens, UniProt Q9Y297); assay: In vitro ubiquitination assay (GST-Wee1KR substrate, immunoblotting); assay type: biochemical; conditions: immunoblots quantitated by ImageJ
Description: Components of SCF complex (SKP1, Cul1, Rbx1, and hemagglutinin (HA)-tagged β-TrCP) were expressed in HEK293T cells. Anti-HA antibody was added into the SCF complexes expressed HEK 293T cell lysate and rotated at 4°C for 1 h. Aliquots of this mixture were added to protein G beads and rotated at 4°C for 30 min. After washing the beads in cell lysis buffer three times, the tube was centrifuged at 20,400 × g for 5 min and the supernatant was discarded. The protein on the beads was used as recombinant SCF^β-TrCP complexes. Aliquots of SCF complexes bound on the beads were then added to ubiquitination reactions (10 mM Tris pH = 7.5, 5 mM MgCl2, 1 mM DTT, 1 mM ATP, 20 mM creatine phosphate, 0.1 mg/mL creatine kinase, 5 mM NaF, 1 mM Na3VO4, 2 mg/mL ubiquitin, 0.5 μg E1 enzyme, 2 μg E2 enzyme) in a final volume of 30 µL. Compounds of 100 µM final concentration were added to reactions, and GST-Wee1KR was added as substrate 15 min later. The reaction mixtures were incubated at 37°C for 2 h and were further examined by immunoblotting.
(§1) Immunoblotting followed by in vitro ubiquitination assay was performed using anti-human Wee1A [30]. Immunoblotting in the analysis of protein degradation was performed using anti-phospho-β-catenin (Ser33/37/Thr41) antibody (1:1000, Cell Signaling Technology, Danvers, MA, USA), anti-phospho-IκBα (Ser32) (14D4), Rabbit mAb (1:1000, Cell Signaling Technology), anti-β-catenin (D10A8) (1:1000, Cell Signaling Technology), anti-IκBα antibody (1:1000, Cell Signaling Technology), and Goat polyclonal anti-rabbit IgG antibody (1:5000, Proteintech, Am Klopferspitz, Planegg-Martinsried, Germany). The transferred membrane was incubated with specific antibody, then detected using Super Signal West Pico chemiluminescent substrate (Thermo Fisher Scientific) and FUSION SOLO S (VILBER LOURMAT/MS equipment, Zi Sud torcy, Marne-la-vallee, France). The quantification of immunoblotting results was performed using ImageJ software.

[2] = test system: β-catenin and phosphorylated β-catenin in HeLa cells; assay: Analysis of β-catenin degradation by immunoblotting in HeLa cells; assay type: cell-based; conditions: 3 h with compound
Description: as §1
For examining the effect on degradation of β-catenin, HeLa cells were cultured in the presence or absence of the compound for 3 h. The cell extracts were examined by immunoblotting using antibodies against β-catenin and phosphorylated β-catenin (p-β-catenin).

[3] = test system: IκBα and phosphorylated IκBα in HeLa cells; assay: TNF-α induced IκBα degradation by immunoblotting in HeLa cells; assay type: cell-based; conditions: 30 min compound then TNF-α 40 ng/mL 5 min
Description: as §1
For examining the effect on degradation of IκBα, HeLa cells were cultured in the presence or absence of the compound for 30 min. TNF-α (Cat. No. TNA-H4211, Acro Biosystems, Newark, DE, USA) was added (40 ng/mL) and incubated for another 5 min. The cell extracts were analyzed using immunoblotting using antibodies against IκBα and phosphorylated IκBα (p-IκBα).

[4] = test system: TCF transcription in HeLa cells; assay: TOP/FOP-Flash luciferase reporter assay (TCF transcription activity); assay type: cell-based; conditions: 24 h with compound
Description: HeLa cells were seeded on 96-well plates. Subsequently, TCF and NF-κB transcription activity was examined by the luciferase assay system. T-cell Factor (TCF) transcription activity was assessed by TOP/FOP-Flash luciferase reporter assay, using a pRL-SV40 vector as an internal control. TOP FLASH contains three […] and a firefly luciferase reporter with a minimal promoter and an upstream of the luciferase reporter gene. FOP FLASH is similar to TOP reporter; however, it has three mutated TCF-binding sites and is used as a negative control. The average ratio of TOP to renilla luciferase divided by FOP was used as TCF activity. TOP flash (Sigma-Aldrich, Temecula, CA, USA) or FOP FLASH reporter plasmids (Sigma-Aldrich) and pRL-sv40 renilla luciferase reporter (Promega) were co-transfected into HeLa cells using Lipofectamine 3000 reagent kit (Thermo Fisher Scientific). Furthermore, 24 h after transfection, cells were cultured with the compounds of different dilutions for another 24 h. The cells were lysed, and the luminescence was measured using the Luciferase Assay System (Promega). A minimum of three samples were taken for each sample.

Chain of SCF^β-TrCP1 (P63208 whole entry partner, one chain of several): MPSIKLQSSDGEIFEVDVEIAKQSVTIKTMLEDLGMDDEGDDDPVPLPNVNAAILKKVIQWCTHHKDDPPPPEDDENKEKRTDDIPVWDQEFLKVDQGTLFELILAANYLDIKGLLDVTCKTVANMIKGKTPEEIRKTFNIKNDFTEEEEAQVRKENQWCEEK
Chain of SCF^β-TrCP1 (Q13616 whole entry partner, one chain of several): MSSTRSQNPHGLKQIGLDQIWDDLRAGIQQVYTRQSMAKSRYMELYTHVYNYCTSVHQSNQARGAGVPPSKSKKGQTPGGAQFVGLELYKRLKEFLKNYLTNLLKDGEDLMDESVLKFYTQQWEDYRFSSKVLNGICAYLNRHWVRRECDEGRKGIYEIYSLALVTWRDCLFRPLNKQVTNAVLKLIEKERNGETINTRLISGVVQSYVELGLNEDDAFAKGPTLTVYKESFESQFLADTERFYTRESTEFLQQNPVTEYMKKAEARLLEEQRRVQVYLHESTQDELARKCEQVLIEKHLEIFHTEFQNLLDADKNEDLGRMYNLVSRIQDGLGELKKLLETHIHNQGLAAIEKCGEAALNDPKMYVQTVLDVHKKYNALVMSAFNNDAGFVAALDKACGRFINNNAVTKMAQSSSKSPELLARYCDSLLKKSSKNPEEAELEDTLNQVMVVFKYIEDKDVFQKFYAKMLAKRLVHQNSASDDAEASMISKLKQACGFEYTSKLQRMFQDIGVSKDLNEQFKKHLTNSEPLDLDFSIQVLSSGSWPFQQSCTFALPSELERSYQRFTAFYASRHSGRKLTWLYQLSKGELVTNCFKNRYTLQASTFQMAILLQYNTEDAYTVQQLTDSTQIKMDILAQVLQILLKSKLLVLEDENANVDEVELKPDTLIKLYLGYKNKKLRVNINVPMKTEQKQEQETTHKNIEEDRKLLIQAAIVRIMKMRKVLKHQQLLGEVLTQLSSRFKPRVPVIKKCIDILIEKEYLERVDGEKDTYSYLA
Chain of SCF^β-TrCP1 (P62877 whole entry partner, one chain of several): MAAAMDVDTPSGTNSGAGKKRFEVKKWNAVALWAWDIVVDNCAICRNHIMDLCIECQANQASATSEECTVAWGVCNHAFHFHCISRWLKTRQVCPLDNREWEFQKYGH

With “CDDRHDpSGLDpSMKDEE (CDDRHD[pS]GLD[pS]MKDEE) [C-IκB-PP15]” the “binding of mAG-β-TrCP1 to plate-fixed phosphopeptide in presence of free phosphopeptide” value (mAG-β-TrCP1) was “concentration-dependent binding decrease”.

For `CC1=NN(c2ccc(C(=O)O)cc2)C(=O)/C1=C\c1ccc(-c2cc(C)c(C)cc2[N+](=O)[O-])o1` [NPL62020-01], the non-specific cytotoxicity (HeLa cells) was “cytotoxicity only at high concentration”, the “NF-κB transcription, % of that of the control group (DMSO, TNF-α)” value [1] was “approximately 20%” and the “TNF-α induced NF-κB activation of transcription” value [1] was “reduced NF-κB activation dose-dependently”. The IC50 (SCF^β-TrCP1) was 30 µM.

For `CC1=NN(c2ccc(C(=O)O)cc2)C(=O)/C1=C\c1ccc(-c2ccc3c(c2)C(=O)N(C(C)C)C3=O)o1` [NPL42040-01], the non-specific cytotoxicity (HeLa cells) was “cytotoxicity only at high concentration”, the “TNF-α induced NF-κB activation of transcription” value [1] was “reduced NF-κB activation dose-dependently” and the IC50 (SCF^β-TrCP1) was 13 µM.

For `CC(C)C[C@@H](C=O)NC(=O)[C@H](CC(C)C)NC(=O)[C@H](CC(C)C)NC(=O)OCc1ccccc1` [MG132, reference compound] (Cbz-Leu-Leu-Leu-aldehyde), the “level of phosphorylated β-catenin (p-β-catenin)” value (from here on “level … (p-β-catenin)”) [2] was “caused the accumulation”, the “level of β-catenin” value [2] was “caused the accumulation” and the “level of IκBα after TNF-α” value [3] was “caused the inhibition of the degradation”. For the same molecule, the “level of phosphorylated IκBα (p-IκBα) after TNF-α” value [3] was “caused the inhibition of the degradation”.

For `O=C(O)c1ccc(-c2ccc(/C=C3\C(=O)N(c4ccc(C(=O)O)cc4)N=C3C(F)(F)F)o2)cc1` [NPL72038-01], the TCF transcription [4] was “did not cause a high increase”, the “level … (p-β-catenin)” value [2] was “promoted the accumulation” and the “level of β-catenin” value [2] was “did not significantly affect”. For the same molecule, the IC50 (SCF^β-TrCP1) was 7 µM.

With `COC(=O)c1ccc(-c2ccc(/C=C3\C(=O)N(c4cccc(C(=O)O)c4)N=C3C(F)(F)F)o2)cc1` [NPL62039-01] the TCF transcription [4] was “did not cause a high increase”, the “level … (p-β-catenin)” value [2] was “promoted the accumulation” and the “level of β-catenin” value [2] was “did not significantly affect”. For the same molecule, the IC50 (SCF^β-TrCP1) was 9 µM.

With `O=C(O)c1ccc(N2N=C(Cc3ccccc3)/C(=C/c3ccc(-c4ccccc4F)o3)C2=O)cc1` [GS143, reference compound] the TCF transcription [4] was “did not affect TCF transcription”, the “level … (p-β-catenin)” value [2] was “did not affect” and the “level of β-catenin” value [2] was “did not affect”. For the same molecule, the “level of IκBα after TNF-α” value [3] was “caused the inhibition of the degradation”, the “level of phosphorylated IκBα (p-IκBα) after TNF-α” value [3] was “caused the inhibition of the degradation” and the “NF-κB transcription, % of that of the control group (DMSO, TNF-α)” value [1] was ~ 40%. The IC50 (SCF^β-TrCP1) was 25 µM.

B1: Wnt3a: molecule that stimulates classic Wnt signaling (protein, UniProt P56704 19-352, looked up)
Protein Wnt-3a: SYPIWWSLAVGPQYSSLGSQPILCASIPGLVPKQLRFCRNYVEIMPSVAEGIKIGIQECQHQFRGRRWNCTTVHDSLAIFGPVLDKATRESAFVHAIASAGVAFAVTRSCAEGTAAICGCSSRHQGSPGKGWKWGGCSEDIEFGGMVSREFADARENRPDARSAMNRHNNEAGRQAIASHMHLKCKCHGLSGSCEVKTCWWSQPDFRAIGDFLKDKYDSASEMVVEKHRESRGWVETLRPRYTYFKVPTERDLVYYEASPNFCEPNPETGSFGTRDRTCNVSSHGIDGCDLLCCGRGHNARAERRREKCRCVFHWCCYVSCQECTRVYDVHTCK
For B1, the TCF transcription [4] was “increased”.
